In patent US20080081781A1, “Methods and compositions for the treatment of metabolic syndrome” (priority 2004, published 2008):
Structures can show the parent of a compound that is named as a salt. Where two headings read alike, the source gives them in different places.

Columns and labels:
[1] = Excretion of berberine in rats (urine, fecal matter, gall bladder secretions); assay type: in vivo, rat; details: rats, oral 3H-berberine, forty-eight hours
Method: In a final series of animal model studies, rats were orally administered 3H-berberine. Forty-eight hours after administration, excretions were tested for the presence of berberine. 2.7% of the oral dose was measured in the urine and 86% of the oral dose was measured in the fecal matter.
Rats received intravenous berberine (9.25 MBq/kg). Six days accumulation of rat urine and fecal secretions were measured for the presence of berberine. 73% of the intravenous dose of the berberine was found in the accumulated urine in both metabolized and unmetabolized forms. 10.9% of the intravenous dose was found in the fecal matter.
Three rats were given berberine (9.25 MBq/kg) intravenously. After 24 hours, gall bladder secretions were collected and evaluated for the presence of berberine. There was 10.1±0.9% (x±SD, n=3) of berberine in the gall bladder secretions.

[2] = Tissue distribution of 3H-berberine in mice; assay type: in vivo, mouse; details: tail vein 135 LBq/10 g, 5 minutes to 2 hours
Method: Tissue radiation emission was measured 5 minutes to 2 hours after administration with the distribution of the berberine concentrations from highest to lowest being: lung>liver>kidney>spleen>heart>intestine>stomach>brain.

[3] = Pharmacokinetics of 3H-berberine in rabbits, intravenous and intravenous drip
Method: 0.1 ml of blood was removed at various times and radiation emissions were measured.

[4] = Distill Water; amount of solute 10 mg
InsR mRNA = assay: Kinase inhibitors on berberine-induced InsR gene transcription in HepG2 cells (RT-PCR); assay type: cell-based, human; details: HepG2, inhibitor 1 hour before 7.5 μg berberine 8 hours; calphostin C 0.2 μM
Method: (§1) To explore the pathway responsible for the berberine-induced InsR gene transcription, different kinase inhibitors were used, including the MEK1-ERK inhibitor U0126, the p38 kinase inhibitor SB203580, the c-Jun N-terminal kinase inhibitor curcumin, the PI-3 kinase inhibitor wortmannin, and the PKC inhibitor calphostin C.
(§2) HepG2 cells were pretreated with each of the inhibitors 1 hour prior to treatment with 7.5 μg of berberine for 8 hours. Total RNA was then isolated and the relative amount of InsR and LDLR mRNA was measured by quantitative RT-PCR as described in Example XVII. It was determined that the activity of berberine on InsR gene transcription was most sensitive to the PKC inhibitor calphostin C.

LDLR mRNA = assay: Kinase inhibitors on berberine-induced LDLR mRNA in HepG2 cells (RT-PCR); assay type: cell-based, human; details: HepG2, inhibitor 1 hour before 7.5 μg berberine 8 hours; calphostin C 0.2 μM
Method: as §1, §2

hyperlipidemia patients = details: three months
Method: After three months, fasting serum concentrations of cholesterol, triglycerides, HDL and LDL were measured using standard blood lipid tests.

rat model subjects = assay: Combinatorial anti-hyperlipidemia efficacy of berberine and lovastatin in rats (Table 9); assay type: in vivo
[5] = system: patients with type 2 diabetes; assay type: in vivo, human; details: patients with type 2 diabetes, Mean ± SE
Excerpt: Ninety-seven hyperglycemic patients (54 males and 43 females) with fasting blood glucose>7 mmol/L and post-prandial blood glucose>11.1 mmol/L were enrolled in a study at the Nanjing First Hospital in Nanjing, China. The patients were asked to end any current treatments for hyperglycemia at least 2 weeks prior to commencement of the study.
Fifty of the patients (male/female, 27/23; age 57±8y) were randomly assigned to be given 0.5 gram twice a day (1g/day total) of berberine (Nanjing Second Pharmaceutics, Inc., Nanjing, China), orally for 2 months. Out of these 50 patients, 25 had hyperlipidemia, 9 had hypertension and 2 had cardiovascular disease. Twenty-six patients (male/female, 15/11; age 56±11 y) were given 1.5 grams of metformin (Double-Crane Pharmaceutical, Inc., Beijing, China) per day, orally for two months. Of these twenty-six patients, 11 had hyperlipidemia, and four had hypertension. The remaining twenty-one patients (male/female, 11/10, age 49±10 y) were given 4 mg per day of rosiglitazone (Glaxowelcome, UK), orally for two months. Of these 21 patients, ten had hyperlipidemia and four had hypertension. Metformin and rosiglitazone served as reference controls as they are standard treatments for type 2 diabetes.
Blood samples were taken prior to the commencement of therapy and after completion of the therapy.

[6] = system: high fat high cholesterol (HFHC) diet rats; assay: Combination treatment with berberine and simvastatin in HFHC diet rats (Table 8); assay type: in vivo, rat; details: oral, after 25 days, daily dose berberine 100 mg/kg, simvastatin 25 mg/kg, combination 100 + 25, average ± standard error
Method: Rats were fed a high fat high cholesterol (HFHC) diet for 10 days, and then divided into groups of seven. The rats were then administered berberine or simvastatin, or a combination of berberine and simvastatin orally for 25 days. After 25 days, serum cholesterol, triglyceride and LDL-c levels were measured. […] The combination of simvastatin, and berberine lowered the cholesterol, triglyceride and LDL-c levels further than either alone.

InsR gene promoter = assay: InsR promoter activity, pGL3-1.5kIRP transfected HepG2 cells; assay type: cell-based, human; details: pGL3-1.5kIRP transfected HepG2; calphostin C 0.2 μM, berberine 5 μg/ml
Method: The InsR promoter luciferase gene fusion plasmid (pGL3-1.5kIRP) was kindly provided by Dr. Araki E of the Graduate School of Medical Sciences, Kumamoto University, Honjo, Kumamoto, Japan.
After overnight incubation, the cells were treated with DMSO as the solvent control or with 0, 1, 2.5, 5, 7.5 and 10 μg/ml berberine for 8 h. Cell lysates were prepared and luciferase activities were measured using the Luciferase Reporter Gene Assay (Roche Applied Science). The experiment was repeated 4 times.

LDLR promoter = LDLR promoter activity, pLDLR234Luc reporter in HepG2 cells; assay type: cell-based, human; details: pLDLR234Luc HepG2, LPDS or LPDS and cholesterol medium, 8 hour treatment
Excerpt: HepG2 cells were transfected with the reporter construct pLDLR234Luc, which contains the SRE- I motif and the sterol-independent regulatory element that mediates the cytokine oncostatin M-induced transcription of the LDLR gene.

[7] = 0.5 g twice a day, all treated patients (n=63)
[8] = only participants neither on drugs nor special diets
[9] = high fat diet rats treated for 15 days, berberine 80 mg/kg/day, lovastatin 10 mg/kg/day
[10] = high fat diet rats, Day 0 (untreated rats, baseline)
[11] = After treatment (2 months), oral: berberine 1 g/day, metformin 1.5 g/day, rosiglitazone 4 mg/day

3H-berberine
oral dose measured in the fecal matter [1]: 86% | oral dose measured in the urine [1]: 2.7% | distribution of concentrations in tissues, highest to lowest [2]: lung>liver>kidney>spleen>heart>intestine>stomach>brain | Vd ([3]; 5 rabbits, intravenously 25 MBq/kg): 20 ± 3 L/kg | Vd ([3]; four rabbits, intravenous drip 46.25 Mbq/kg): 22.1 ± 1.7 L/kg

CC(=O)[O-].COc1ccc2cc3[n+](cc2c1OC)CCc1cc2c(cc1-3)OCO2 [3. Acetate]
Amount of Solvent [4]: 9.0

CC(O)C(=O)[O-].COc1ccc2cc3[n+](cc2c1OC)CCc1cc2c(cc1-3)OCO2 [4. Lactate]
Amount of Solvent [4]: 6.0

COc1ccc2cc3[n+](cc2c1OC)CCc1cc2c(cc1-3)OCO2.CS(=O)(=O)[O-] [6. Methanesulfonate]
Amount of Solvent [4]: 1.5

COc1ccc2cc3[n+](cc2c1OC)CCc1cc2c(cc1-3)OCO2.O=S(=O)([O-])O [7. Hydrosulfate]
Amount of Solvent [4]: 1.5

COc1ccc2cc3[n+](cc2c1OC)CCc1cc2c(cc1-3)OCO2.COc1ccc2cc3[n+](cc2c1OC)CCc1cc2c(cc1-3)OCO2.O=S(=O)([O-])[O-] [8. Sulfate]
Amount of Solvent [4]: 0.5

COc1ccc2cc3[n+](cc2c1OC)CCc1cc2c(cc1-3)OCO2.O=C([O-])c1ccccc1 [13. Benzoate]
Amount of Solvent [4]: 7.0

COc1ccc2cc3[n+](cc2c1OC)CCc1cc2c(cc1-3)OCO2.Cc1ccc(S(=O)(=O)[O-])cc1 [15. Toluenesulfonate]
Amount of Solvent [4]: 11.0

COc1ccc2cc3[n+](cc2c1OC)CCc1cc2c(cc1-3)OCO2.O=C([O-])C(F)(F)F [16. Trifluoroacetate]
Amount of Solvent [4]: 7.5

N#CC(=C(/N)Sc1ccccc1N)/C(C#N)=C(\N)Sc1ccccc1N [U0126]
effect of inhibitor on the activity of berberine on InsR gene transcription (InsR mRNA): did not effect | effect of inhibitor on berberine-increased level of LDLR mRNA (LDLR mRNA): completely abolished

COc1ccc2cc3[n+](cc2c1OC)CCc1cc2c(cc1-3)OCO2 [berberine hydrochloride]
lowering of serum LDL (hyperlipidemia patients; [7]): 20% | lowering of serum cholesterol (hyperlipidemia patients; [7]): 18% | lowering of serum triglycerides (hyperlipidemia patients; [7]): 28% | decrease of serum LDL (hyperlipidemia patients; [8]): 25% | decrease of serum cholesterol (hyperlipidemia patients; [8]): 29% | decrease of serum triglycerides (hyperlipidemia patients; [8]): 35%

CC[C@H](C)C(=O)O[C@H]1C[C@@H](C)C=C2C=C[C@H](C)[C@H](CC[C@@H]3C[C@@H](O)CC(=O)O3)[C@H]21 [lovastatin, reference compound]
Cholesterol Day 15 (rat model subjects; [9]): 2.7 mmol/L | LDL Day 15 (rat model subjects; [9]): 1.62 mmol/L | Cholesterol Day 0 (rat model subjects; [10]): 3.6 mmol/L | LDL Day 0 (rat model subjects; [10]): 2.15 mmol/L

CN(C)C(=N)N=C(N)N [metformin, reference compound]
HbA1c [5, 11]: 7.2 ± 0.3 % | Triglyceride [5, 11]: 1.6 ± 0.1 mmol/L | FBG (fasting blood glucose) ([5]; Before treatment (baseline)): 10.9 ± 0.5 mmol/L | HbA1c ([5]; Before treatment (baseline)): 9.4 ± 0.5% | Triglyceride ([5]; Before treatment (baseline)): 1.7 ± 0.2 mmol/L

CN(CCOc1ccc(CC2SC(=O)NC2=O)cc1)c1ccccn1 (stereo not drawn) [rosiglitazone, reference compound]
HbA1c [5, 11]: 6.8 ± 0.3 % | Triglyceride [5, 11]: 1.6 ± 0.1 mmol/L | FBG (fasting blood glucose) ([5]; Before treatment (baseline)): 9.1 ± 0.8 mmol/L | HbA1c ([5]; Before treatment (baseline)): 8.3 ± 0.4% | Triglyceride ([5]; Before treatment (baseline)): 1.9 ± 0.3 mmol/L

CCC(C)(C)C(=O)O[C@H]1C[C@@H](C)C=C2C=C[C@H](C)[C@H](CC[C@@H]3C[C@@H](O)CC(=O)O3)[C@H]21 [simvastatin, reference compound]
LDL-c [6]: 1.4 ± 0.1 mmol/L | Total Cholesterol [6]: 3.6 ± 0.4 mmol/L | Triglyceride [6]: 2.5 ± 0.3 mmol/L

Calphostin C
effect of inhibitor on the activity of berberine on InsR gene transcription (InsR mRNA): completely eliminated | effect of PKC inhibitor pre-treatment on berberine stimulation of InsR gene promoter (InsR gene promoter): diminished the ability of berberine to stimulate the InsR gene promoter | effect of inhibitor on berberine-increased level of LDLR mRNA (LDLR mRNA): did not change

B1: oncostatin M: cytokine oncostatin M that induces transcription of the LDLR gene (protein, UniProt P13725 26-221, looked up)
Oncostatin-M: AAIGSCSKEYRVLLGQLQKQTDLMQDTSRLLDPYIRIQGLDVPKLREHCRERPGAFPSEETLRGLGRRGFLQTLNATLGCVLHRLADLEQRLPKAQDLERSGLNIEDLEKLQMARPNILGLRNNIYCMAQLLDNSDTAEPTKAGRGASQPPTPTPASDAFQRKLEGCRFLHGYHRFMHSVGRVFSKWGESPNRSRR
LDLR promoter activity (LDLR promoter): strongly elevated
